Target: T1, HA-S147A/S170A CaSR mutant (Rattus norvegicus, UniProt P48442, S147A/S170A)
T1 construct: mGluR5 signal peptide (N); expressed in transfected cells; host or cells: HEK293T
T1 sequence (P48442 20-1079 S147A/S170A): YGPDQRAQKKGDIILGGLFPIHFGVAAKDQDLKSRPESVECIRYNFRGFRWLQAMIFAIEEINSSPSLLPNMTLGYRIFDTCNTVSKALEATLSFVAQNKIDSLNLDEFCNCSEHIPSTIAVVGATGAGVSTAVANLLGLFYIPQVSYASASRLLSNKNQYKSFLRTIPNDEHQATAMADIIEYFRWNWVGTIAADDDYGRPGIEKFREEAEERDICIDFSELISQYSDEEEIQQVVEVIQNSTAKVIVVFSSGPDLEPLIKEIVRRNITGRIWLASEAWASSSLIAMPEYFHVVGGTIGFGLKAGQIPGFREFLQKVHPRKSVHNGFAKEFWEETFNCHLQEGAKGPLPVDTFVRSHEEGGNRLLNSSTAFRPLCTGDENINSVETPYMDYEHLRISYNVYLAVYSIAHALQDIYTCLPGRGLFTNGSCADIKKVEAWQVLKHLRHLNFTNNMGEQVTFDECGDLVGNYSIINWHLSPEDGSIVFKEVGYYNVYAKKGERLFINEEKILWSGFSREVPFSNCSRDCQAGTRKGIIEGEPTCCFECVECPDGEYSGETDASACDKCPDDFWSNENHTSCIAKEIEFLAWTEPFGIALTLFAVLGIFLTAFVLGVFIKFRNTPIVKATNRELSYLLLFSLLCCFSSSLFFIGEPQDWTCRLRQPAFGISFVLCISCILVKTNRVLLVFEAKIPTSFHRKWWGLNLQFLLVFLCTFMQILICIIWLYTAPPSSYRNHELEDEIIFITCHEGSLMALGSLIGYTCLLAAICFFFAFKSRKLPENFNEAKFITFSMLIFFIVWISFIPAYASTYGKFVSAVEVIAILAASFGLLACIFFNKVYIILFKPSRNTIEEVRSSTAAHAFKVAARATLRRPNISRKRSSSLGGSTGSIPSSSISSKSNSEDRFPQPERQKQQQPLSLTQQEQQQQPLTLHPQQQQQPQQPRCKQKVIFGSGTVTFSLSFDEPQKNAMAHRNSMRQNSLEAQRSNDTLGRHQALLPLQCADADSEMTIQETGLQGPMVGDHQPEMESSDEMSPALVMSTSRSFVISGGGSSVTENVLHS
Assay: IP-One assay, HEK293T transiently transfected
Assay type: cell-based

EC50 (Ca^2+ alone): 9.04 mM | Hill coefficient ± S.E.M. (Ca^2+ alone): 3.00 ± 0.07 | pEC50 ± S.E.M. (Ca^2+ alone): 2.04 ± 0.02 | Max ± S.E.M. (normalized to maximum response of WT CaSR): 130 ± 28%
Compound: [Ca+2] [Ca^2+]
